From PMC4492579, “Potent and Selective Triazole-Based Inhibitors of the Hypoxia-Inducible Factor Prolyl-Hydroxylases with Activity in the Murine Brain” (PLoS ONE, 2015)
Where a name gives a salt, the structure may show the parent alone. Read-outs that look alike come from different tables or passages of the source.

Key:
HIF1α and HIF2α = assay: HIFα induction in tissues of treated mice (immunoblotting); type: in vivo, C57BL/6 mice; settings: i.p.; for HIF1α and HIF2α induction in liver, kidney and heart / HIF1α and HIF2α induction in the brain: equimolar: IOX2 37.7 mg/kg, IOX4 35 mg/kg, DMOG 75 mg/kg
Protocol: All animal experiments were performed on male C57BL/6 mice aged 3 months (purchased from Harlan Laboratories, Blackthorn) housed in specific pathogen free conditions with free access to water and standard chow. Mice were injected intraperitonially with the inhibitor (dissolved in Hanks’ buffered saline solution, pH 7.0, 5% DMSO final) or vehicle at the indicated doses for the indicated time as previously described. Tissues from treated mice were harvested and ‘snap frozen’ with liquid nitrogen before being stored at -80°C. For immunoblotting, a portion of the tissues was removed, weighed and homogenised in urea/SDS buffer before being analysed by immunoblotting with HIF1α rabbit polyclonal antibody (10006421, Cayman Chemical, 1:1000) or HIF2α rabbit polyclonal antibody (PM9 [27], 1:1000). For RNA extraction, tissues were ‘snap frozen’ in liquid nitrogen immediately after harvesting, then ground to a fine powder using a cryogenic tissue pulveriser, keeping samples on dry ice at all times and processed for total RNA extraction using the mirVana miRNA isolation kit (AM1560, Life Technologies) according to the manufacturer’s protocol for processing frozen tissues. All animal procedures were compliant with the UK Home Office Animals (Scientific Procedures) Act 1986 and Local Ethical Review Procedures (University of Oxford Medical Sciences Division Ethical Review Committee).
The inhibitors or vehicle controls were injected intraperitonially into wild type C57BL/6 mice and sacrificed after the indicated treatment time before harvesting their tissues to be analysed for HIFα levels by immunoblotting.

U2OS = assay: Quantitative HIF1α MSD immunoassay, U2OS; type: cell-based; settings: Homo sapiens, read-out: HIF1α EC50
Protocol: Cells were seeded into 96-well cell culture plates (150 μl culture volume) at approximately 60–70% confluency at least 12 h prior to the compound treatment. Half of the culture medium (75 μl/well) were removed and 75 μl/well of medium containing the desired concentrations of compounds were added into cells for 5 h. The cell medium was then removed and the cells were washed once with phosphate buffered saline (PBS), followed by the addition of lysis buffer (20 mM Tris pH 7.4, 450 mM NaCl, 1 mM EDTA, 1 mM EGTA, 0.5% Triton X-100, 1x complete protease inhibitor cocktail and 100 μM DFO). Plates were then left at 4°C with shaking. […] Plates were washed thrice with Tris Wash Buffer, added with 150 μl/well 2X Read Buffer (R92TC, Meso Scale Discovery) before being read with an MSD Sector S600 plate reader (Meso Scale Discovery). Signals generated were normalized to “lysis buffer-only” controls.
To quantify the cellular efficiency of PHD inhibition, we developed an electrochemiluminescence-based assay for the quantification of HIF1α levels using the Meso Scale Discovery (MSD, http://www.mesoscale.com) technology (HIF1α MSD assay), which is based on the capture and detection of HIF1α protein using two specific HIF1α antibodies. […]

JARID1C (KDM5C) = JARID1C (KDM5C) (Homo sapiens, UniProt P41229); assay: KDM AlphaScreen assay, JARID1C
Sequence of JARID1C (KDM5C) (P41229 whole entry): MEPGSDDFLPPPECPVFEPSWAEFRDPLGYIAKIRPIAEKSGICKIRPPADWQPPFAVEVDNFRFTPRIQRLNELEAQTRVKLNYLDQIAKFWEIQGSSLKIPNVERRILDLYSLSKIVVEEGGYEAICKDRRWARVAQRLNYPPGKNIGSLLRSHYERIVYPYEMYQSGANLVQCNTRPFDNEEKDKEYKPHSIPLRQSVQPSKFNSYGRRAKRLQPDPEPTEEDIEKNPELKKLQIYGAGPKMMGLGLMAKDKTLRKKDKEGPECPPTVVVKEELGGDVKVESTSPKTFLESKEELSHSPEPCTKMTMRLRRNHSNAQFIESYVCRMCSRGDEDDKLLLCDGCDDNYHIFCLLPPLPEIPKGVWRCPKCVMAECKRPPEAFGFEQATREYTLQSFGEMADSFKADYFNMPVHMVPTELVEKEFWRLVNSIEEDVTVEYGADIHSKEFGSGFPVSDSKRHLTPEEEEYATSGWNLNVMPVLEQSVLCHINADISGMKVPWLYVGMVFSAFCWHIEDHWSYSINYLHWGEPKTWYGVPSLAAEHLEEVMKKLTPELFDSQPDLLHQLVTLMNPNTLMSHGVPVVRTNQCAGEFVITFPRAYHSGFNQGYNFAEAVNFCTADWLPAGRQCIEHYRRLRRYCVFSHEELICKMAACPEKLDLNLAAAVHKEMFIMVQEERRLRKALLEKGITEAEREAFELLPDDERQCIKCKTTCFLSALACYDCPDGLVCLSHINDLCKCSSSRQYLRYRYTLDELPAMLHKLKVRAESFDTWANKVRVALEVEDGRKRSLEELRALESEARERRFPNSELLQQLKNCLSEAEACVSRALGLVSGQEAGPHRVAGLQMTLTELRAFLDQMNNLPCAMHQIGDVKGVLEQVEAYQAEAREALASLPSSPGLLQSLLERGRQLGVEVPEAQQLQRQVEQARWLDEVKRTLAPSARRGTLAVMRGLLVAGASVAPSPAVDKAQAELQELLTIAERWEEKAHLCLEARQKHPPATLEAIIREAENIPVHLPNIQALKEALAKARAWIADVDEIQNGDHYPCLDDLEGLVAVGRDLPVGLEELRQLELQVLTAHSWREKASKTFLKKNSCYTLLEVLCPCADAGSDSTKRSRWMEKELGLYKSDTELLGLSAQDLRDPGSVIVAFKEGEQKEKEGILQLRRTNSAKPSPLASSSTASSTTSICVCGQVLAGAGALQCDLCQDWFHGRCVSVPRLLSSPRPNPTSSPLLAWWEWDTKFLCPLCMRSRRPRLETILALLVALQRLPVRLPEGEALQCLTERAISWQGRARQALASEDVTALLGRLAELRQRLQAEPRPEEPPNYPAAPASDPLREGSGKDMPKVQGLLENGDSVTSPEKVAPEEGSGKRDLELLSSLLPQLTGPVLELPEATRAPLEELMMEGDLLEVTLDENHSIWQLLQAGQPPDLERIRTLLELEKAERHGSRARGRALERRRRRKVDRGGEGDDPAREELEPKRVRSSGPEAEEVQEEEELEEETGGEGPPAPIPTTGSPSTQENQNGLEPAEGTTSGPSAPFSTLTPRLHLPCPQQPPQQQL
Protocol: Inhibition assays for PHD2 (AlphaScreen) [9], the KDMs (AlphaScreen) [17], BBOX [18] and FTO [19] were carried out as previously described. […] IC50 values were calculated using nonlinear regression with normalized dose-response fit using GraphPad Prism 5.

HeLa cells = assay: Immunoblotting of HIF1α induction in HeLa cells; type: cell-based, human; settings: VHL-competent HeLa cells, immunoblot
Protocol: Human cell lines (RCC4, HeLa, Hep3B, MCF-7 and U2OS) were cultured in DMEM (D6546-500ML; Sigma Aldrich) each supplemented with 10% fetal bovine serum (F7524-500ML; Sigma Aldrich), 2 mM L-glutamine (G7513- 100ML; Sigma Aldrich), 50 units/ml of penicillin, and 50 μg/ml of streptomycin (P0781-100ML; Sigma Aldrich). The RCC4 cell line was a gift from C.H.C.M. Buys (University of Groningen, [2]), the HeLa and Hep3B cell lines were from the European Collection of Cell Cultures (ECACC), the MCF-7 cell line was from the American Type Culture Collection (ATCC) and the U2OS cell line was a gift from S.Galey (ICRF Clare Hall Laboratories, United Kingdom). Cells were treated either with DMSO (control) or compounds (dissolved in DMSO) and added directly into the cell culture medium to the desired final concentration for 4–5 h as previously described.
Cells were extracted using urea/SDS buffer (6.7 M urea, 10 mM Tris-HCl pH 6.8, 10% glycerol and 1% SDS) and processed for immunoblotting as described. The following primary antibodies were used for immunoblotting: mouse monoclonal HIF1α antibody clone 54 (610958, BD Transduction Laboratories, 1:1000), rabbit polyclonal HIF1α hydroxy-Pro402 antibody (07–1585, Millipore, 1:1000), rabbit monoclonal HIF1α hydroxy-Pro564 antibody clone D43B5 (3434S, Cell Signaling, 1:500), mouse monoclonal HIF1α hydroxy-Asn803 antibody (a kind gift from Dr M. K. Lee, Republic of Korea, 1:4000), mouse monoclonal PHD2 antibody clone 76a (1:10), mouse monoclonal FIH antibody clone 162c (1:200) and β-actin/HRP (clone AC15, Abcam). HRP-conjugated swine polyclonal anti-rabbit IgG (P0399, Dako), and goat polyclonal anti-mouse IgG (P0447, Dako) were used as secondary antibodies.
In this cell line, the extent of the differential HIF1α prolyl hydroxylation at the N-terminal and C-terminal oxygen-dependent degradation domains (HyPro402 and HyPro564, respectively), as well as HIF1α asparaginyl hydroxylation at the C-terminal transactivation domain (HyAsn803) can be interrogated by immunoblotting using hydroxylation specific antibodies.

SMILES | HIF1α and HIF2α induction in liver, kidney and heart (HIF1α and HIF2α; 1 h) | HIF1α and HIF2α induction in the brain (HIF1α and HIF2α; 1 h) | HIF1α induction in mouse liver (HIF1α and HIF2α; IOX2 37.7 mg/kg, IOX3 30 mg/kg (equivalent molar dose), 1 h and […]) | EC50 (U2OS; 5 h treatment, MSD assay) [µM] | IC50 (JARID1C (KDM5C)) [µM] | HIF1α and HIF2α induction in the liver and brain, dose dependence (HIF1α and HIF2α; 1 h, 17.5 to 70 mg/kg) | HIF1α induction (HeLa cells) | concentration at which activity (HIF1α induction) observed (HeLa cells) [µM] | EC50 (U2OS; 5 h) [µM]
O=C(O)CNC(=O)c1c(O)c2ccccc2n(Cc2ccccc2)c1=O [IOX2] | strongest induction | not | induced in mouse liver after 1 h | 49.5 |  |  |  |  | 
CC(C)(C)OC(=O)c1ccc(-n2[nH]cc(-n3ccnn3)c2=O)nc1 [IOX4, t-Butyl 6-(5-oxo-4-(1H-1,2,3-triazol-1-yl)-2,5-dihydro-1H-pyrazol-1-yl)nicotinate] | induction of HIF1α and HIF2α | induced |  |  | > 100 | Dose-dependent induction | induced HIF1α | ≥ 1 | 5.6
O=C(O)c1ccc(-n2[nH]cc(-n3ccnn3)c2=O)nc1 [compound 1, 6-(5-oxo-4-(1H-1,2,3-triazol-1-yl)-2,5-dihydro-1H-pyrazol-1-yl)pyridine-3-carbocylic acid hydrochloride] |  |  |  |  | > 100 |  | induced HIF1α |  | 
